Cn1cc(C(=O)NCc2ccc(Cl)cc2)c(=O)c2cc(COCC[C@@H](O)c3ccccc3)sc21
melting point: 154.5 to 155.5 °C

— patent US20050004161A1 (published 2005)
